Experimental data published in a melting point compilation (Tetko et al.; mined from patent text by program, amines drawn as free bases though some values may be those of a salt).

First: COc1ccc2c(c1)CCC1C2CCC2(C)C(O)CCC12 (centres undefined)
Second: COc1ccc2c(c1)C(CCNC(=O)C(C)C)CC2 (centres undefined)
The melting point of the first is higher: 121 to 124 °C for the first, 104 to 105 °C for the second.

First: CN(C(=O)OC(C)(C)C)c1cc(Oc2ccc(-c3ccccc3)cc2)ccc1[N+](=O)[O-]
Second: O=C(Nc1cccnc1NCc1ccc(Cl)cc1)c1ccccc1[N+](=O)[O-]
The melting point of the first is higher: 166 to 167 °C for the first, 145 to 147 °C for the second.

Compared with `COc1cncnc1N1CCN(CCCc2c[nH]c3ccc(Nc4c(OC(C)C)c(=O)c4=O)cc23)CC1`, `COc1cc2ncnc(N3CCN(C(=O)NCc4ccco4)CC3)c2cc1OC` is higher in melting point: 140 to 143 °C for the first, 168 to 170 °C for the second.

First: CN1C(=O)CN=C(c2ccccc2Cl)c2cccn21
Second: COC(OC)C(C)NC1=Nc2ccc(Cl)cc2C(c2ccccc2Cl)=NC1 (centres undefined)
The melting point of the first is lower: 132 to 134 °C for the first, 153 to 155 °C for the second.

First: CCCCCCCCCCC(O)Cn1ccnc1-c1ccccn1 (centres undefined)
Second: CCCCCCCCCCCCCCOc1ccc(CC(=O)OCC)cc1OC
The melting point of the first is higher: 62 to 65 °C for the first, 40 to 41 °C for the second.

First: COc1ccc(C=CC(=O)O)cc1-c1cc2c(cc1OCCCCCCCC(=O)O)C(C)(C)CCC2(C)C
Second: CCCCCC(CC(=O)Nc1cc(C(=O)O)ccc1C(C)(C)C)c1ccc(C(=O)CCC)cc1OC (centres undefined)
The melting point of the first is higher: 212 to 214 °C for the first, 136 to 138 °C for the second.

Compared with `Clc1ccc(OCc2ccccc2)c(OCc2ccccc2)c1Cl`, `O=C(O)c1cc(=O)c2cccc(/C=C/c3ccc(OCCCCc4ccccc4)cc3)c2o1` is higher in melting point: 74 to 75.5 °C for the first, 159 to 161 °C for the second.

First: COc1ccc2c(c1)C(=O)C(CN1CCC(O)(c3ccc(F)cc3)CC1)CC2 (centres undefined)
Second: O=c1[nH]c2ccc(C3=NOC(CN4CCC(c5ccc(F)cc5)CC4)C3)cc2o1 (centres undefined)
The melting point of the first is lower: 193 to 195 °C for the first, 214 to 217 °C for the second.

First: Oc1ccc(C2(c3ccc(O)c(F)c3)c3ccccc3-c3ccccc32)cc1F
Second: O=C(c1ccc(O)cc1)c1c(-c2ccccc2)cc2ccccn12
The melting point of the first is higher: 219 to 221 °C for the first, 179 °C for the second.

Compared with `COC(=O)c1nc2cccc(OC)c2c(O)c1C(=O)OC`, `CCCC(=O)c1cnc2c(OC)cccc2c1Nc1ccccc1COC` is lower in melting point: 184 to 186 °C for the first, 128 to 130 °C for the second.

Compared with `N#Cc1ccc(CC(NC(=O)C(Cc2ccccc2)S(=O)(=O)Nc2ccc3ccccc3c2)C(=O)N2CCCC2)cc1` (centres undefined), `O=S(=O)(Cc1ccc(O)cc1)Nc1ncc(-c2ccc(O)cc2)nc1Cc1ccccc1` is lower in melting point: 206 °C for the first, 194 to 196 °C for the second.

Compared with `COc1nc(C)nc(NC(=O)NS(=O)(=O)c2ccccc2C(=O)Nc2nc[nH]n2)n1`, `CC(C)OCCNS(=O)(=O)NC(=O)OCc1ccccc1` is lower in melting point: 176 to 179 °C for the first, 88 to 89 °C for the second.

First: N#Cc1cccc(-c2ccc(OC[C@@H](O)CCc3cccnc3)cc2)c1
Second: O=c1c(CCCc2cncnc2)cc2cccnc2n1-c1cccc([N+](=O)[O-])c1
The melting point of the first is lower: 74 to 75 °C for the first, 175 to 176 °C for the second.

First: CN(CCCNC(=O)CSc1nc2ccc(N(C)C)nc2s1)Cc1ccc(Cl)c(Cl)c1
Second: O=C(O)CSONC(=O)c1c(Cl)ccc2cc(Cl)cnc12
The melting point of the first is lower: 92 to 93 °C for the first, 174 °C for the second.

First: CC(C)(C)OC(=O)NC(Cc1ccccc1)CC(O)C(Cc1ccccc1)NC(=O)OCc1cncs1 (centres undefined)
Second: CS(=O)(=O)NC(c1ccccc1)c1ccccc1
The melting point of the first is lower: 118 to 120 °C for the first, 148 to 150 °C for the second.

First: CCS(=O)(=O)c1cc(C(=O)NCC2CCCN2CC2CCC2)c(OC)cc1N (centres undefined)
Second: NS(=O)(=O)c1ccc(N2CC(=O)N(C3CCCCC3)C2=O)cc1
The melting point of the first is lower: 170 °C for the first, 237 to 238 °C for the second.

First: CC(C(O)c1ccc2c(c1)CCCS2)N1CCC(n2c(=O)[nH]c3ccccc32)CC1 (centres undefined)
Second: CC(CCO)N1CCC(Cc2ccccc2)CC1 (centres undefined)
The melting point of the first is higher: 232 to 235 °C for the first, 74 to 76 °C for the second.

First: CCCCOC(=O)c1cc([N+](=O)[O-])c(Cl)c(S(N)(=O)=O)c1
Second: CC(C)(C)c1cc(C(=O)CCCCOc2ccc(C(=O)C(=O)O)cc2)cc(C(C)(C)C)c1O
The melting point of the first is lower: 140 to 141 °C for the first, 144 to 145 °C for the second.

Compared with `Cc1noc(-c2cn(-c3cccc(-c4ccccc4)c3)cn2)n1`, `O=C1OC2(CCN(C(=O)Nc3cnc(-c4ccccc4)cn3)CC2)c2cc(O)ccc21` is higher in melting point: 163 to 165 °C for the first, 206 to 208 °C for the second.

First: Cn1ccc2cc(NC(=O)/C=C/c3ccc(C(C)(C)C)cc3)ccc21
Second: O=C(Nc1ccc(C=CCN2C(=O)c3ccccc3C2=O)cc1)c1ccccc1-c1ccc(C(F)(F)F)cc1
The melting point of the first is lower: 171 °C for the first, 190 °C for the second.

Compared with `Cc1cc2c(-c3cccc(C(F)(F)F)c3)nc(Cl)nc2s1`, `COc1cc(N)c2nccc(C)c2c1Oc1cccc(C(F)(F)F)c1` is higher in melting point: 108 °C for the first, 113 to 115 °C for the second.

Compared with `O=c1[nH]c2cc(Cl)cc(Cl)c2c(=O)n1Cc1ccccc1F`, `Cn1cc(-c2ccccc2)c(=O)c(-c2cc(C(F)(F)F)ccc2Cl)c1` is lower in melting point: 275 to 278 °C for the first, 150 to 152 °C for the second.

First: COc1ccc2[nH]cc(C3=CCC4(CC3)OCCO4)c2c1
Second: O=C1NCCc2oc3ccccc3c21
The melting point of the first is higher: 161 to 162 °C for the first, 158 to 161 °C for the second.

Compared with `Cc1cc(N(C)CC(=O)N2CCN(Cc3ccccc3)CC2)ccc1Oc1ccc(NC(=O)c2ccc(C(F)(F)F)cc2)cn1`, `O=C(c1ccc(CNc2ncnc3ccccc23)cc1)N1CCN(c2ncc(Cc3ccccc3)cn2)CC1` is lower in melting point: 112 to 113 °C for the first, 99 to 101 °C for the second.

Compared with `N#CCCCCn1c(=O)c2ccccc2n(CCCCN2CCC(OC(c3ccccc3)c3ccccc3)CC2)c1=O`, `CCN(c1nc2ccccc2[nH]1)C1CCN(CCc2ccccc2)CC1` is higher in melting point: 119 to 121 °C for the first, 205 °C for the second.

Compared with `CCCN(CCC)C(=O)CNc1nc(-c2ccccc2)ncc1N`, `Cc1ccc(C(=O)O)cc1Nc1nccc(-c2cccnc2)n1` is higher in melting point: 120 to 122 °C for the first, 277 to 278 °C for the second.

First: CCOCc1nc2c(c(C)c(C)n3nnnc23)n1CCNC(=O)C(C)C
Second: CCOC(=O)c1cn(C(C)C(OC)OC)c2c(F)c(F)c(F)cc2c1=O (centres undefined)
The melting point of the first is higher: 179 to 181 °C for the first, 125 to 126 °C for the second.

First: O=C(O)/C=C/C=C(c1ccc(Cl)cc1)c1ccc(Cl)cc1
Second: Cn1cnnc1C(O)(c1ccc(Cl)cc1)c1ccc2[nH]c(=O)cc(-c3cccc(Cl)c3)c2c1 (centres undefined)
The melting point of the first is lower: 213 to 215 °C for the first, greater than 260 °C for the second.

Compared with `Cc1ccc(C2CCN(C(=O)CCC(=O)c3ccc4c(c3)CCN(C(=O)C(F)(F)F)CC4)CC2)cc1`, `CCOC(=O)N1CCC(=C2c3ccc(Cl)cc3SCc3cccnc32)CC1` is higher in melting point: 132 to 134 °C for the first, 154 to 157 °C for the second.

First: c1ccc(N(c2ccccc2)c2cccc3cc(-c4nc5ccccc5s4)ccc23)cc1
Second: NCCNCCCNCCN1C(=O)c2cccc3cc4ccccc4c(c23)C1=O
The melting point of the first is higher: 186 to 187 °C for the first, 150 °C for the second.

First: CCC(=O)c1cc(Br)no1
Second: CC(=O)Nc1ncc(C)cc1Br
The melting point of the first is lower: 35 to 37 °C for the first, 65 to 66 °C for the second.

First: COC(=O)CCC(C)C1CCC2C3C(C(C)=O)CC4CC(C(C)=O)CCC4(C)C3C=CC12C (centres undefined)
Second: CC(=O)OC1CC2CCC3C4CCC(C(C)=O)C4(C)CC(=O)C3C2(C)CC1Br (centres undefined)
The melting point of the first is lower: 137 to 139 °C for the first, 154 to 156 °C for the second.

First: CCCCc1nc(Cl)c(CC#N)n1Cc1ccc(C#N)cc1
Second: CNC(=O)Cc1ccc(O)cc1
The melting point of the first is lower: 110 to 113 °C for the first, 124 to 125 °C for the second.

First: COc1ccc(-c2nn3c(S(C)=O)nnc3c3ccccc23)cc1 (centres undefined)
Second: CC#COc1ccc2oc3ccccc3c(=O)c2c1
The melting point of the first is higher: 201 °C for the first, 153 to 154 °C for the second.

Compared with `CNc1cccc(N)c1C(N)=O`, `CC1(C)CCC(C(=O)O)c2ccccc21` (centres undefined) is lower in melting point: 130 to 132 °C for the first, 80 to 81 °C for the second.

Compared with `COc1ccc(-c2cc(F)c(F)cc2-c2ccc(S(N)(=O)=O)cc2)cc1OC`, `CNCCCc1cc(C(=O)Nc2ccc(-c3ccc(C(C)=O)cc3)cc2)ccc1OC` is higher in melting point: 157 to 158 °C for the first, 195 to 196 °C for the second.

First: CN1CC2Cc3ccc(Cl)cc3C(O)C2C1 (centres undefined)
Second: CC(=O)N1CC(CCN2CC=C(c3ccc(Cl)cc3)CC2)c2ccccc21 (centres undefined)
The melting point of the first is higher: 178 to 182 °C for the first, 116 to 118 °C for the second.

Compared with `CN(C#N)C(=O)CCCCC(=O)N(C)C#N`, `COC(=O)CCC(=O)SCC(=O)NC(C)=O` is higher in melting point: 86.1 to 87.8 °C for the first, 111 to 113 °C for the second.

First: Cn1cc(-c2cc3nccnc3[nH]2)c2cc(C(=O)O)ccc21
Second: CC(=O)c1ccc2oc3ccc(C(C)=O)cc3c(=O)c2c1
The melting point of the first is higher: 350 °C for the first, 226 to 228 °C for the second.

First: COCCON1C(=O)C(c2c(C)cc(C)cc2C)C(=O)C12CCN(N(C)C)CC2 (centres undefined)
Second: COc1cc(C)c(N)c(C)c1C
The melting point of the first is higher: 108 °C for the first, 70 to 72 °C for the second.

Compared with `O=C(Nc1cccc(Cl)c1)c1c(C(F)(F)F)nc2c(C(F)(F)F)cccc2c1O`, `O=C(Nc1ccc(-n2nc(C(F)(F)F)cc2C(F)(F)F)cc1)c1cccs1` is higher in melting point: 152 °C for the first, greater than 230 °C for the second.

First: COc1cc(C=O)ccc1C1OC(CO)C(O)C(O)C1O (centres undefined)
Second: COc1c(C)c(C=O)c(OC)c2ccccc12
The melting point of the first is higher: 188 to 190 °C for the first, 95 to 96 °C for the second.

First: CC(=O)OC1CSC(Oc2cccc(-c3cccnc3C)c2)C(OC(C)=O)C1OC(C)=O (centres undefined)
Second: CNS(=O)(=O)c1ccc(C2=NC(C)(C)Cc3cc(OC)c4c(c32)CC(C)(C)O4)cc1
The melting point of the first is higher: 153 °C for the first, 146 to 148 °C for the second.

First: CN(C)c1ccc(NC(=O)N(C[C@H]2CCC[C@H](CN(C(=O)Nc3ccc(N(C)C)cc3)C3CCCC3)C2)C2CCCC2)cc1 (relative stereo)
Second: NC(=O)NC(Cc1c[nH]c2ccccc12)C(=O)NCc1cc(C(F)(F)F)cc(C(F)(F)F)c1 (centres undefined)
The melting point of the first is lower: 142 to 147 °C for the first, 210 to 212 °C for the second.

First: CNC(=NS(C)(=O)=O)NCCCCc1nc(NC(N)=NCC(F)(F)F)sc1C
Second: CCCCNC(=S)Nc1onc2c1CCC2
The melting point of the first is higher: 165 to 166 °C for the first, 93 °C for the second.

Compared with `N#Cc1cn2cc(Br)nc(N3CCOCC3)c2n1`, `Cc1c(OCC(F)(F)F)ccnc1CSc1nc2cc(N3CCCCC3)c(F)cc2[nH]1` is lower in melting point: 265 °C for the first, 160 to 161 °C for the second.

Compared with `Nc1cc(Cl)cnc1F`, `Oc1c(F)cc(Oc2ncc(C(F)(F)F)cc2F)cc1F` is higher in melting point: 74 °C for the first, 125 to 128 °C for the second.

First: Cc1csc(NC(=O)C(C(=O)OC(C)C)=C2SCCS2)n1
Second: CS(=O)(=O)Oc1cccc2c1CCCN2
The melting point of the first is higher: 161 to 162 °C for the first, 74 to 76 °C for the second.

First: O=C(O)COc1ccc2c(=O)c3ccc(Cl)cc3oc2c1Cl
Second: OC(CSc1nccs1)(Cn1cncn1)c1ccc(Cl)cc1Cl (centres undefined)
The melting point of the first is higher: 270 °C for the first, 110 to 111 °C for the second.

`Cc1cc(C2=NN=C(C#N)Cc3cc4c(cc32)OCO4)ccc1[N+](=O)[O-]` gave a melting point of 211 to 214 °C.
